Assay results published in patent US20150011423A1, “MEANS AND METHODS FOR ASSESSING KIDNEY TOXICITY” (BASF SE, priority 2011, published 2015).
Marks after values point to notes of the source that are not given here.

Tested on: rats
Assay: 28-day repeated dose study in rats with mass spectrometry-based plasma metabolite profiling (GC-MS, LC-MS, SPE-LC-MS); treatment ratios versus control
Settings: plasma
[1] = female rats, day 7, high dose, Table 4a inhibition of weak acid excretion
[2] = female rats, day 7, high dose, Table 4b inhibition of weak acid excretion
[3] = female rats, day 14, high dose, Table 4a inhibition of weak acid excretion
[4] = female rats, day 14, high dose, Table 4b inhibition of weak acid excretion
[5] = female rats, day 28, high dose, Table 4a inhibition of weak acid excretion
[6] = female rats, day 28, high dose, Table 4b inhibition of weak acid excretion
[7] = male rats, day 7, high dose, Table 4c inhibition of weak acid excretion
[8] = male rats, day 7, high dose, Table 4d inhibition of weak acid excretion
[9] = male rats, day 14, high dose, Table 4c inhibition of weak acid excretion
[10] = male rats, day 14, high dose, Table 4d inhibition of weak acid excretion
[11] = male rats, day 28, high dose, Table 4c inhibition of weak acid excretion
[12] = male rats, day 28, high dose, Table 4d inhibition of weak acid excretion

In the case of `Cc1cc(Cl)ccc1OCC(=O)O` [MCPA], the “Glycerol, lipid fraction, treatment ratio versus control” value [1] is reported as 1.69 *, the “Linoleic acid (C18:cis[9,12]2), treatment ratio versus control” value [1] is reported as 1.66 * and the “Lysophosphatidylcholine (C18:2), treatment ratio versus control” value [1] is reported as 1.38^. The “Phosphatidylcholine (C16:0, C16:0), treatment ratio versus control” value [1] was 1.52 *, the “Phosphatidylcholine (C16:0, C18:2), treatment ratio versus control” value [1] was 1.66 * and the “Phosphatidylcholine (C16:0, C20:5), treatment ratio versus control” value [1] was 2.03 *. For the same molecule, the “Phosphatidylcholine (C16:1, C18:2), treatment ratio versus control” value [1] was 2.92 *, the “Phosphatidylcholine (C18:0, C18:1), treatment ratio versus control” value [1] was 1.57 * and the “Phosphatidylcholine (C18:1, C18:2), treatment ratio versus control” value [1] was 1.68^. The “gamma-Linolenic acid (C18:cis[6,9,12]3), treatment ratio versus control” value [1] was 4.23 *, the “Arginine, treatment ratio versus control” value [2] was 0.62 * and the “Indole-3-lactic acid, treatment ratio versus control” value [2] was 0.24 *. For the same molecule, the “Ketoleucine, treatment ratio versus control” value [2] was 0.42 *, the “Proline, treatment ratio versus control” value [2] was 0.61 * and the “Tryptophan, treatment ratio versus control” value [2] was 0.17 *. The “trans-4-Hydroxyproline, treatment ratio versus control” value [2] was 0.57^, the “Glycerol, lipid fraction, treatment ratio versus control” value [3] was 1.38 * and the “Linoleic acid (C18:cis[9,12]2), treatment ratio versus control” value [3] was 1.36 *. For the same molecule, the “Lysophosphatidylcholine (C18:2), treatment ratio versus control” value [3] was 1.45 *, the “Phosphatidylcholine (C16:0, C16:0), treatment ratio versus control” value [3] was 1.8 * and the “Phosphatidylcholine (C16:0, C18:2), treatment ratio versus control” value [3] was 1.82 *. For the same molecule, the “Phosphatidylcholine (C16:0, C20:5), treatment ratio versus control” value [3] was 2.09 *, the “Phosphatidylcholine (C16:1, C18:2), treatment ratio versus control” value [3] was 2.88 * and the “Phosphatidylcholine (C18:0, C18:1), treatment ratio versus control” value [3] was 1.74 *. The “Phosphatidylcholine (C18:1, C18:2), treatment ratio versus control” value [3] was 2.12 *, the “gamma-Linolenic acid (C18:cis[6,9,12]3), treatment ratio versus control” value [3] was 2.93 * and the “Arginine, treatment ratio versus control” value [4] was 0.58 *. The “Indole-3-lactic acid, treatment ratio versus control” value [4] was 0.24 *, the “Ketoleucine, treatment ratio versus control” value [4] was 0.21 * and the “Proline, treatment ratio versus control” value [4] was 0.45 *. For the same molecule, the “Tryptophan, treatment ratio versus control” value [4] was 0.18 *, the “trans-4-Hydroxyproline, treatment ratio versus control” value [4] was 0.47 * and the “Glycerol, lipid fraction, treatment ratio versus control” value [5] was 1.6 *. The “Linoleic acid (C18:cis[9,12]2), treatment ratio versus control” value [5] was 1.28 *, the “Lysophosphatidylcholine (C18:2), treatment ratio versus control” value [5] was 1.35 * and the “Phosphatidylcholine (C16:0, C16:0), treatment ratio versus control” value [5] was 1.78 *. For the same molecule, the “Phosphatidylcholine (C16:0, C18:2), treatment ratio versus control” value [5] was 1.45 *, the “Phosphatidylcholine (C16:0, C20:5), treatment ratio versus control” value [5] was 1.61 * and the “Phosphatidylcholine (C16:1, C18:2), treatment ratio versus control” value [5] was 2.45 *. For the same molecule, the “Phosphatidylcholine (C18:0, C18:1), treatment ratio versus control” value [5] was 1.56 *, the “Phosphatidylcholine (C18:1, C18:2), treatment ratio versus control” value [5] was 1.78 * and the “gamma-Linolenic acid (C18:cis[6,9,12]3), treatment ratio versus control” value [5] was 2.99 *. The “Arginine, treatment ratio versus control” value [6] was 0.58 *, the “Indole-3-lactic acid, treatment ratio versus control” value [6] was 0.23 * and the “Ketoleucine, treatment ratio versus control” value [6] was 0.15 *. The “Proline, treatment ratio versus control” value [6] was 0.42 *, the “Tryptophan, treatment ratio versus control” value [6] was 0.16 * and the “trans-4-Hydroxyproline, treatment ratio versus control” value [6] was 0.6 *. The “3-Indoxylsulfate, treatment ratio versus control” value [7] was 0.72^, the “Aspartate, treatment ratio versus control” value [7] was 0.58 * and the “Ceramide (d18:1, C24:0), treatment ratio versus control” value [7] was 1.2. For the same molecule, the “Cholesterolester No 01, treatment ratio versus control” value [7] was 0.97^, the “Lysophosphatidylethanolamine (C22:5), treatment ratio versus control” value [7] was 1.16^ and the “Phosphatidylcholine (C16:0, C20:5), treatment ratio versus control” value [7] was 1.73 *. For the same molecule, the “gamma-Linolenic acid (C18:cis[6,9,12]3), treatment ratio versus control” value [7] was 1.69 *, the “Arachidonic acid (C20:cis[5,8,11,14]4), treatment ratio versus control” value [8] was 0.27 * and the “Arginine, treatment ratio versus control” value [8] was 0.72 *. The “Aspartate, treatment ratio versus control” value [8] was 0.58 *, the “Choline plasmalogen (C18, C20:4), treatment ratio versus control” value [8] was 0.64 * and the “Cytosine, treatment ratio versus control” value [8] was 0.63 *. The “Glucose, treatment ratio versus control” value [8] was 0.75 *, the “Indole-3-lactic acid, treatment ratio versus control” value [8] was 0.36 * and the “Lysine, treatment ratio versus control” value [8] was 0.4 *. The “Lysophosphatidylcholine (C18:0), treatment ratio versus control” value [8] was 0.81 *, the “Methionine, treatment ratio versus control” value [8] was 0.66 * and the “Nervonic acid (C24:cis[15]1), treatment ratio versus control” value [8] was 0.67 *. The “Phosphatidylcholine (C18:0, C20:4), treatment ratio versus control” value [8] was 0.36 *, the “Ribal, treatment ratio versus control” value [8] was 0.94 * and the “3-Indoxylsulfate, treatment ratio versus control” value [9] was 1.53 *. For the same molecule, the “Aspartate, treatment ratio versus control” value [9] was 1.01^, the “Ceramide (d18:1, C24:0), treatment ratio versus control” value [9] was 2.39 * and the “Cholesterolester No 01, treatment ratio versus control” value [9] was 1.27 *. For the same molecule, the “Lysophosphatidylethanolamine (C22:5), treatment ratio versus control” value [9] was 1.08^, the “Phosphatidylcholine (C16:0, C20:5), treatment ratio versus control” value [9] was 1.82 * and the “gamma-Linolenic acid (C18:cis[6,9,12]3), treatment ratio versus control” value [9] was 2.68 *. The “Arachidonic acid (C20:cis[5,8,11,14]4), treatment ratio versus control” value [10] was 0.42 *, the “Arginine, treatment ratio versus control” value [10] was 0.57 * and the “Aspartate, treatment ratio versus control” value [10] was 1.01^. The “Choline plasmalogen (C18, C20:4), treatment ratio versus control” value [10] was 0.76 *, the “Cytosine, treatment ratio versus control” value [10] was 0.63 * and the “Glucose, treatment ratio versus control” value [10] was 0.72 *. The “Indole-3-lactic acid, treatment ratio versus control” value [10] was 0.38, the “Lysine, treatment ratio versus control” value [10] was 0.3 * and the “Lysophosphatidylcholine (C18:0), treatment ratio versus control” value [10] was 0.83 *. The “Methionine, treatment ratio versus control” value [10] was 0.59 *, the “Nervonic acid (C24:cis[15]1), treatment ratio versus control” value [10] was 0.74 * and the “Phosphatidylcholine (C18:0, C20:4), treatment ratio versus control” value [10] was 0.55 *. For the same molecule, the “Ribal, treatment ratio versus control” value [10] was 0.89 *, the “3-Indoxylsulfate, treatment ratio versus control” value [11] was 1.92 * and the “Aspartate, treatment ratio versus control” value [11] was 0.69^. The “Ceramide (d18:1, C24:0), treatment ratio versus control” value [11] was 1.72 *, the “Cholesterolester No 01, treatment ratio versus control” value [11] was 1.32 * and the “Lysophosphatidylethanolamine (C22:5), treatment ratio versus control” value [11] was 1.1. The “Phosphatidylcholine (C16:0, C20:5), treatment ratio versus control” value [11] was 2.11 *, the “gamma-Linolenic acid (C18:cis[6,9,12]3), treatment ratio versus control” value [11] was 2.54 * and the “Arachidonic acid (C20:cis[5,8,11,14]4), treatment ratio versus control” value [12] was 0.26 *. For the same molecule, the “Arginine, treatment ratio versus control” value [12] was 0.68 *, the “Aspartate, treatment ratio versus control” value [12] was 0.69 * and the “Choline plasmalogen (C18, C20:4), treatment ratio versus control” value [12] was 0.45 *. For the same molecule, the “Cytosine, treatment ratio versus control” value [12] was 0.6 *, the “Glucose, treatment ratio versus control” value [12] was 0.6 * and the “Indole-3-lactic acid, treatment ratio versus control” value [12] was 0.3 *. The “Lysine, treatment ratio versus control” value [12] was 0.33 *, the “Lysophosphatidylcholine (C18:0), treatment ratio versus control” value [12] was 0.73 * and the “Methionine, treatment ratio versus control” value [12] was 0.64 *. For the same molecule, the “Nervonic acid (C24:cis[15]1), treatment ratio versus control” value [12] was 0.76 *, the “Phosphatidylcholine (C18:0, C20:4), treatment ratio versus control” value [12] was 0.24 * and the “Ribal, treatment ratio versus control” value [12] was 0.77 *.
